These compounds were tested on MV4-11 (assay: Cellular MV4-11 viability assay (CellTiter-Glo, 72 hours)). Settings: Homo sapiens.
Assay type: cell-based
Procedure: (§1) All cell lines were routinely tested for mycoplasma.
(§2) The effect of the CDK7 inhibitor to inhibit the growth of target cancer cells was evaluated through the 72 hours time period of viability assay. Briefly, the candidate cell line ware plated in 96 well plate at the following density of cells respectively. […] DMSO solvent without compound served as a control and final DMSO concentration less than 0.1%. After 72 hours of incubation at 37° C., 5% CO2 incubator, cells were analyzed for the viability using the CellTiter-Glo Luminescent Cell Viability Assay (Promega, Cat #G7570). All viability assays were performed in duplicate and Luminescence was read using an Envision (Perkin Elmer, USA). Data was analyzed using XLfit software.

IC50 [nM] | SMILES
1000 to 10000 | CC(C)c1cnn2c(NCc3ccccc3-c3ccc4ccccc4n3)nc(OCC3CCNCC3)nc12 [Compound 215]
< 1000 | CC(C)C(=O)N1CCc2nn(-c3ccccc3CNc3nc(N4CCC(N)CC4)nc4c(C(C)C)cnn34)cc2C1 [Compound 148]
< 1000 | CC1CCN(c2cnn(-c3cccc(Cl)c3CNc3nc(N4CCC(N)CC4)nc4c(C(C)C)cnn34)c2)CC1 [Compound 204]

Each compound was assayed against T1, CDK1/Cyclin B (Homo sapiens, UniProt P06493) (assay: Enzymatic assay for CDK1 (FRET based LANCE Ultra kinase assay)). Settings: read-out: CDK1 enzymatic activity (IC50 range).
T1 construct: purchased Invitrogen PR4768C
T1 sequence (P06493 whole entry): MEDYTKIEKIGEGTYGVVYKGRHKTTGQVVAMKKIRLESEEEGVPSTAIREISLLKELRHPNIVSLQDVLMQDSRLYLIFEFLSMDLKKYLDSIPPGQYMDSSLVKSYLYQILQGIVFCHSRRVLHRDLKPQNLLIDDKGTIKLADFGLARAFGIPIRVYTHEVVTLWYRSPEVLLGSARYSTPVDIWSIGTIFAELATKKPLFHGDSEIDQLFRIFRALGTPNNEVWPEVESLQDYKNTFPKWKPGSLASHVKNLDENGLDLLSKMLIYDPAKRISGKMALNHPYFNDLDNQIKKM
T1 sequence (P14635 whole entry partner): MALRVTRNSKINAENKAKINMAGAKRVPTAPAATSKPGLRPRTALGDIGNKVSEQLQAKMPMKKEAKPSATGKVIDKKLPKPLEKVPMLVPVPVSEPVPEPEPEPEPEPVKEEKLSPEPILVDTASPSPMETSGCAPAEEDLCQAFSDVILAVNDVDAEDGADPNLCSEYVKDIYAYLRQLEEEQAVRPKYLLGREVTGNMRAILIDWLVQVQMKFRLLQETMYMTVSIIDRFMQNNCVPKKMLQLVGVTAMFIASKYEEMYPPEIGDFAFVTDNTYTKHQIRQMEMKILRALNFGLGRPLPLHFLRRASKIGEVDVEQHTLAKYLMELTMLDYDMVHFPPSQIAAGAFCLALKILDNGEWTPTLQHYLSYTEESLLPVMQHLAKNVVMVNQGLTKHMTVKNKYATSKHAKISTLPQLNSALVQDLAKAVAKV
Assay type: biochemical
Procedure: (§3) Enzymatic Binding Assay Protocol for CDK1, CDK2, CDK5 and CDK7
(§4) Inhibition activity of the respective compound on CDK kinase under Km value of ATP was tested in FRET based The LANCE® Ultra kinase assay (Perkin Elmer), which uses a ULight™-labeled peptide substrate and an appropriate Europium-labeled anti-phospho-antibody. Test compounds were made with DMSO solutions, and then 4-fold serial dilutions for 8 doses were prepared using automated liquid handler (POD810, LABCYTE) and 80 nL/well of diluted compound solutions were added into the 384-well plates (Greiner, Cat #784075). And then 68 nM of ULight-MBP peptide (Perkin Elmer, Cat #TRF0109-M) and 5 ul/well of ATP (Sigma, Cat #A7699) were added to the plate. After 1 min centrifugation at 1000 rpm, Purified CDKs/Cyclin complex were added following concentrations respectively. 24 uM for CDK1/Cyclin B (Invitrogen, Cat #PR4768C), 22 uM for CDK2/Cyclin A (Invitrogen, Cat #PV6290), 10 uM for CDK5/p25 (Invitrogen, Cat #PR8543B) and […] for CDK7/Cyclin H/MNAT1 (Invitrogen, Cat #PR6749B) were added to the each corresponding plate for CDK1, CDK2, CDK5 and CDK7. Incubate at 23° C. for 60 min and then Eu-labeled anti-phospho-Myelin Basic Protein (PE, Cat #TRF0201-M) and EDTA (Invitrogen, Cat #15575038) mixture in Lance Detection Buffer (Perkin Elmer, Cat #CR97100) was added in each well. After additional incubation at 23° C. for 60 min, test articles were measured the fluorescence using Envision leader (Perkin Elmer, USA) [Laser as excitation light; […] as the first and the second emission filter]. Data was analyzed using XL Fit software.

IC50 [nM] | SMILES
> 1000 | CC(C)c1cnn2c(NCc3ccccc3-c3ccc4ccccc4n3)nc(OCC3CCNCC3)nc12 [Compound 215]
> 1000 | CC(C)C(=O)N1CCc2nn(-c3ccccc3CNc3nc(N4CCC(N)CC4)nc4c(C(C)C)cnn34)cc2C1 [Compound 148]
> 1000 | CC1CCN(c2cnn(-c3cccc(Cl)c3CNc3nc(N4CCC(N)CC4)nc4c(C(C)C)cnn34)c2)CC1 [Compound 204]

These compounds were tested on HCT116 (assay: Cellular HCT116 viability assay (CellTiter-Glo, 72 hours)). Settings: Homo sapiens, HCT-116.
Assay type: cell-based
Procedure: as §1, §2

IC50 [nM] | SMILES
1000 to 10000 | CC(C)c1cnn2c(NCc3ccccc3-c3ccc4ccccc4n3)nc(OCC3CCNCC3)nc12 [Compound 215]
< 1000 | CC(C)C(=O)N1CCc2nn(-c3ccccc3CNc3nc(N4CCC(N)CC4)nc4c(C(C)C)cnn34)cc2C1 [Compound 148]
< 1000 | CC1CCN(c2cnn(-c3cccc(Cl)c3CNc3nc(N4CCC(N)CC4)nc4c(C(C)C)cnn34)c2)CC1 [Compound 204]

The compounds below were run on H460 (assay: Cellular H460 viability assay (CellTiter-Glo, 72 hours)). Settings: Homo sapiens, NCI-H460.
Assay type: cell-based
Procedure: as §1, §2

IC50 [nM] | SMILES
< 1000 | CC(C)c1cnn2c(NCc3ccccc3-c3ccc4ccccc4n3)nc(OCC3CCNCC3)nc12 [Compound 215]
< 1000 | CC(C)C(=O)N1CCc2nn(-c3ccccc3CNc3nc(N4CCC(N)CC4)nc4c(C(C)C)cnn34)cc2C1 [Compound 148]
< 1000 | CC1CCN(c2cnn(-c3cccc(Cl)c3CNc3nc(N4CCC(N)CC4)nc4c(C(C)C)cnn34)c2)CC1 [Compound 204]

These compounds were tested against T2, CDK7/Cyclin H/MNAT1 (Homo sapiens, UniProt P50613) (assay: Enzymatic assay for CDK7 (FRET based LANCE Ultra kinase assay)). Settings: CDK7 over CDK1.
T2 construct: purchased Invitrogen PR6749B
T2 sequence (P50613 whole entry): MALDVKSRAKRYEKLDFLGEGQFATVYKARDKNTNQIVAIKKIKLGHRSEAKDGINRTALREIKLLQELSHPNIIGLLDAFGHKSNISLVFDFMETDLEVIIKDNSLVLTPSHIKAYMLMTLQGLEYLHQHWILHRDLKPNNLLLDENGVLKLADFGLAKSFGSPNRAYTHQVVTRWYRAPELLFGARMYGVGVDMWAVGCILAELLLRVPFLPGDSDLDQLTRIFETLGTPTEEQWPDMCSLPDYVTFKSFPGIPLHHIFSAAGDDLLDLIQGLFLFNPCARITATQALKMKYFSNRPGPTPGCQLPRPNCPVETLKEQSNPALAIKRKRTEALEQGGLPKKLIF
T2 sequence (P51946 whole entry partner): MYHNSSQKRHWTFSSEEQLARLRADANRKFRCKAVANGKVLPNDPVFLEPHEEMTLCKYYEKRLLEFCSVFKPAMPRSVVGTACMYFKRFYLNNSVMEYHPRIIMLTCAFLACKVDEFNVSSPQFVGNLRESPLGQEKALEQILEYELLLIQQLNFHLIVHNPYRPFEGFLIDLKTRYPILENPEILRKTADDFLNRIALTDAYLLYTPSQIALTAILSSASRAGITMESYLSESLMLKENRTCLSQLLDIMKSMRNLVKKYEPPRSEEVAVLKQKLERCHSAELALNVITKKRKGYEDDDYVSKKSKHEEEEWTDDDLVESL
T2 sequence (P51948 whole entry partner): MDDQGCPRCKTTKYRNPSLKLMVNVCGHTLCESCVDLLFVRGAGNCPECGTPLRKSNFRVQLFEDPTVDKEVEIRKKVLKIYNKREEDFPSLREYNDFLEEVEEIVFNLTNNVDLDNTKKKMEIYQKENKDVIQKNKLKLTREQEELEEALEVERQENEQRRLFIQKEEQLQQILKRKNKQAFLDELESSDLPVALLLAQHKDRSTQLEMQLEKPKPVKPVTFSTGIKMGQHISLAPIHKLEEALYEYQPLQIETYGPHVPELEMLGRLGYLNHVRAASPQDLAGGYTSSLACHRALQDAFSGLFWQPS
Assay type: biochemical
Procedure: as §3
Inhibition activity of the respective compound on CDK kinase under Km value of ATP was tested in FRET based The LANCE® Ultra kinase assay (Perkin Elmer), which uses a ULight™-labeled peptide substrate and an appropriate Europium-labeled anti-phospho-antibody. […] After 1 min centrifugation at 1000 rpm, Purified CDKs/Cyclin complex were added following concentrations respectively. […] Data was analyzed using XL Fit software.

CDK1/CDK7: Selectivity of CDK7 inhibition over CDK1 inhibition | SMILES
A (A=greater than 200 fold) | CC(C)c1cnn2c(NCc3ccccc3-c3ccc4ccccc4n3)nc(OCC3CCNCC3)nc12 [Compound 215]
A (A=greater than 200 fold) | CC(C)C(=O)N1CCc2nn(-c3ccccc3CNc3nc(N4CCC(N)CC4)nc4c(C(C)C)cnn34)cc2C1 [Compound 148]
A (A=greater than 200 fold) | CC1CCN(c2cnn(-c3cccc(Cl)c3CNc3nc(N4CCC(N)CC4)nc4c(C(C)C)cnn34)c2)CC1 [Compound 204]

Same assay, conditions: CDK7 over CDK2

CDK2/CDK7: Selectivity of CDK7 inhibition over CDK2 inhibition | SMILES
A (A=greater than 200 fold) | CC(C)c1cnn2c(NCc3ccccc3-c3ccc4ccccc4n3)nc(OCC3CCNCC3)nc12 [Compound 215]
A (A=greater than 200 fold) | CC(C)C(=O)N1CCc2nn(-c3ccccc3CNc3nc(N4CCC(N)CC4)nc4c(C(C)C)cnn34)cc2C1 [Compound 148]
A (A=greater than 200 fold) | CC1CCN(c2cnn(-c3cccc(Cl)c3CNc3nc(N4CCC(N)CC4)nc4c(C(C)C)cnn34)c2)CC1 [Compound 204]

Same assay, conditions: CDK7 over CDK5

CDK5/CDK7: Selectivity of CDK7 inhibition over CDK5 inhibition | SMILES
A (A=greater than 200 fold) | CC(C)c1cnn2c(NCc3ccccc3-c3ccc4ccccc4n3)nc(OCC3CCNCC3)nc12 [Compound 215]
A (A=greater than 200 fold) | CC1CCN(c2cnn(-c3cccc(Cl)c3CNc3nc(N4CCC(N)CC4)nc4c(C(C)C)cnn34)c2)CC1 [Compound 204]

SMILES | CDK5/CDK7: Selectivity of CDK7 inhibition over CDK5 inhibition
CC(C)C(=O)N1CCc2nn(-c3ccccc3CNc3nc(N4CCC(N)CC4)nc4c(C(C)C)cnn34)cc2C1 [Compound 148] | B (B=less than 200 fold, but greater than 20 fold)

Same assay, conditions: read-out: CDK7 enzymatic activity (IC50 range)

IC50 [nM] | SMILES
< 100 | CC(C)c1cnn2c(NCc3ccccc3-c3ccc4ccccc4n3)nc(OCC3CCNCC3)nc12 [Compound 215]
< 100 | CC(C)C(=O)N1CCc2nn(-c3ccccc3CNc3nc(N4CCC(N)CC4)nc4c(C(C)C)cnn34)cc2C1 [Compound 148]
< 100 | CC1CCN(c2cnn(-c3cccc(Cl)c3CNc3nc(N4CCC(N)CC4)nc4c(C(C)C)cnn34)c2)CC1 [Compound 204]

The compounds below were run against T3, CDK2/Cyclin A (Homo sapiens, UniProt P24941) (assay: Enzymatic assay for CDK2 (FRET based LANCE Ultra kinase assay)). Settings: read-out: CDK2 enzymatic activity (IC50 range).
T3 construct: purchased Invitrogen PV6290
Assay type: biochemical
Procedure: as §3, §4

IC50 [nM] | SMILES
> 1000 | CC(C)c1cnn2c(NCc3ccccc3-c3ccc4ccccc4n3)nc(OCC3CCNCC3)nc12 [Compound 215]
100 to 1000 | CC(C)C(=O)N1CCc2nn(-c3ccccc3CNc3nc(N4CCC(N)CC4)nc4c(C(C)C)cnn34)cc2C1 [Compound 148]
> 1000 | CC1CCN(c2cnn(-c3cccc(Cl)c3CNc3nc(N4CCC(N)CC4)nc4c(C(C)C)cnn34)c2)CC1 [Compound 204]

The compounds below were run against T4, CDK5/p25 (Homo sapiens, UniProt Q00535) (assay: Enzymatic assay for CDK5 (FRET based LANCE Ultra kinase assay)). Settings: read-out: CDK5 enzymatic activity (IC50 range).
T4 construct: purchased Invitrogen PR8543B
T4 sequence (Q00535 whole entry): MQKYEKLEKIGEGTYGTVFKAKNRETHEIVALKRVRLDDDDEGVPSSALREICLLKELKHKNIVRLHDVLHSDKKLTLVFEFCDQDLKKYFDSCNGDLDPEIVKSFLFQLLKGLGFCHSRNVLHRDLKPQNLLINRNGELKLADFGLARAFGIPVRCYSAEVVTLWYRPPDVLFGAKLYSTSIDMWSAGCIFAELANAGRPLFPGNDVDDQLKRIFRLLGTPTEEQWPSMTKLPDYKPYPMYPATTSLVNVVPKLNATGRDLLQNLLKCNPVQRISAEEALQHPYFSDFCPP
T4 sequence (Q15078 99-307 partner limits assumed): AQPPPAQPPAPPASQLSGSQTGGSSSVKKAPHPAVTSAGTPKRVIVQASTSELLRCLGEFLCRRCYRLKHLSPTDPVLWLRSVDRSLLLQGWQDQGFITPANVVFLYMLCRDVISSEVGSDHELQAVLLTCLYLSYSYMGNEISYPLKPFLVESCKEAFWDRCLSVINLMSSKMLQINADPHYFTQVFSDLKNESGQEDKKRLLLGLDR
Assay type: biochemical
Procedure: as §3, §4

IC50 [nM] | SMILES
> 1000 | CC(C)c1cnn2c(NCc3ccccc3-c3ccc4ccccc4n3)nc(OCC3CCNCC3)nc12 [Compound 215]
< 100 | CC(C)C(=O)N1CCc2nn(-c3ccccc3CNc3nc(N4CCC(N)CC4)nc4c(C(C)C)cnn34)cc2C1 [Compound 148]
> 1000 | CC1CCN(c2cnn(-c3cccc(Cl)c3CNc3nc(N4CCC(N)CC4)nc4c(C(C)C)cnn34)c2)CC1 [Compound 204]

From patent US11945822B2, “Pyrazolo-triazine and/or pyrazolo-pxrimidine derivatives as selective inhibitor of cyclin dependent kinase” (QURIENT CO., LTD., priority 2018, dated 2024)
